# According to patent publication EP0156508A1, “Antifungal aerosol solution” (ORTHO PHARMACEUTICAL CORPORATION, priority 1984, dated 1985):
# Like-named read-outs stand apart in the source and are kept apart here.
# Assay: Solubility of miconazole nitrate in several common solvents
# Assay type: physicochemical
# Description: The imidazole ethers in general and the miconazoles in particular have very low solubilities in most solvents suitable for use in topical pharmaceutical compositions such as in the treatment of fungal skin infections. The solubility of miconazole nitrate, for example, in several common solvents has been determined to be as follows: […]
smiles,measurement,setting,value
"Clc1ccc(COC(Cn2ccnc2)c2ccc(Cl)cc2Cl)c(Cl)c1.O=[N+]([O-])O (stereo not drawn) [miconazole nitrate, 1-[2,4-dichloro-β-(2,4-dichlorobenzyloxy)-phenethyl] imidazole nitrate]",solubility,"Solvent: 40% PG/water, read-out: solubility",1300 µg/mL
same,solubility,"Solvent: HCl 0.1 N, read-out: solubility",500 µg/mL
same,solubility,Solvent: NaOH,Insoluble
same,solubility,"Solvent: Water, read-out: solubility",300 µg/mL
same,solubility,"organic solvent or mixture, Solvent: 2-Propanol, read-out: solubility",1300 µg/mL
same,solubility,"organic solvent or mixture, Solvent: Acetone, read-out: solubility",3400 µg/mL
same,solubility,"organic solvent or mixture, Solvent: Benzene, read-out: solubility",500 µg/mL
same,solubility,"organic solvent or mixture, Solvent: Chloroform, read-out: solubility",3100 µg/mL
same,solubility,"organic solvent or mixture, Solvent: Ethanol, read-out: solubility",7600 µg/mL
same,solubility,"organic solvent or mixture, Solvent: Ethyl Acetate, read-out: solubility",700 µg/mL
same,solubility,"organic solvent or mixture, Solvent: Hexane, read-out: solubility",300 µg/mL
same,solubility,"organic solvent or mixture, Solvent: Methanol, read-out: solubility",15000 µg/mL
same,solubility,"organic solvent or mixture, Solvent: Methyl Isobutylketone, read-out: solubility",400 µg/mL
same,solubility,"organic solvent or mixture, Solvent: PEG 300, read-out: solubility",1300 µg/mL
same,solubility,"organic solvent or mixture, Solvent: Propylene Glycol, read-out: solubility",1500 µg/mL
same,solubility,"organic solvent or mixture, Solvent: Tetrahydrofuran, read-out: solubility",2000 µg/mL
